Results: patent US20220146526A1, “METHOD FOR EVALUATING SAMPLE, ANALYSIS METHOD, METHOD FOR DETECTING DEGRADED SAMPLE, MARKER FOR DETECTING DEGRADED BLOOD PLASMA SAMPLE, AND MARKER FOR DETECTING DEGRADED SERUM SAMPLE” (SHIMADZU CORPORATION, priority 2019, published 2022)
Entries after “also recorded” stand apart in the source; their conditions may differ.

How the values were obtained:
Format in all cases: physicochemical, human
[1] = LC/MS of blood plasma sample: time from blood collection to centrifugation (Table D); settings: for Rate of increase or decrease: detection intensity relative to 1 at 15 minutes; for Rate of increase or decrease / Increase or decrease: blood collection to centrifugation; for Increase or decrease: detection intensity
Summary of the method: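 Healthy-subject blood (5 mL, EDTA) cooled and held at 4 °C before centrifugation (4 °C, 3000 rpm, 15 min), with plasma then frozen. LC/MS on Discovery HS F5-3 column at 40 °C, 0.1% formic acid water/acetonitrile, 0.25 mL/min, electrospray, MRM; intensities relative to 15 min collection-to-centrifugation set as 1.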

[2] = LC/MS of blood plasma sample: number of times of freezing and thawing (Table F); settings: for Rate of increase or decrease: detection intensity relative to 1 at 2 times; for Increase or decrease: detection intensity
Procedure: (§1) At room temperature, 5 mL of blood from a healthy subject was taken into a blood-collecting vessel containing EDTA, and the blood-collecting vessel was inverted for mixing, then cooled, and allowed to stand at 4° C. Here, in order to investigate how the detection intensity of molecules contained in the sample was affected in a case where the time to cooling was set to 5 minutes or more as compared to that in a case where the time to cooling was set to 1 minute or less, preparations were performed under both the former condition and the latter condition. After standing, the blood sample was subjected to centrifugation under a condition of 4° C., 3000 rpm, and 15 minutes. […] After centrifugation, the blood-collecting vessel was left to stand at room temperature for 30 minutes, and the blood plasma was isolated during this 30 minutes. The obtained blood plasma sample was frozen and stored. Here, in order to investigate how the detection intensity of molecules contained in the sample was affected in cases where freezing and thawing was performed 4 times, 6 times, and 10 times after freezing as compared to that in a case where freezing and thawing was performed 2 times after freezing, freezing and thawing was performed under the respective conditions of 2, 4, 6, and 10 times.
(§2) Frozen blood plasma samples and serum samples were subjected to GC/MS or LC/MS. In GC/MS, the blood plasma samples and serum samples were subjected to methoxymation and trimethylsilylation and then introduced to GC-MS.
(§3) Analysis column: Discovery HS F5-3 (inner diameter of 2.1 mm, length of 150 mm, film thickness of 3 μm) (Sigma-Aldrich)
(§4) Column temperature: 40° C.
(§5) (A) 0.1% formic acid (dissolved in water)
(§6) (B) 0.1% formic acid (dissolved in acetonitrile)
(§7) Flow velocity: 0.25 mL/min
(§8) Ionization method: electrospray
(§9) Temperature: • Desolvation Line (DL) temperature: 250° C. • Heat block temperature: 400° C. • Interface temperature: 300° C.
(§10) Gas flow rate: • Nebulizer gas flow rate: 3.0 L/min • Drying gas flow rate: 10.0 L/min • Heating gas flow rate: 10.0 L/min
(§11) Mode: multiple reaction monitoring (MRM)
The rate of increase or decrease in Table F is the value of detection intensity relative to 1 that is the detection intensity in a case where the number of times of freezing and thawing is set to 2 times.

[3] = LC/MS of serum sample: time from blood collection to centrifugation (Table J); settings: for Rate of increase or decrease: detection intensity relative to 1 at 15 minutes; for Increase or decrease / Time when compound is affected: serum sample, LC/MS; for Increase or decrease: detection intensity vs 15 minutes from blood collection to centrifugation; for Time when compound is affected: time from blood collection to centrifugation, detection intensity changed by 30% or more vs 15 minutes
Procedure: After standing, the blood sample was subjected to centrifugation under a condition of room temperature, 3500 rpm, and 5 minutes. […] After centrifugation, the blood-collecting vessel was left to stand at room temperature, and the serum was isolated during this time. Here, in order to investigate how the detection intensity of molecules contained in the sample was affected in cases where the time during which the blood-collecting vessel was left at room temperature was set to 1 hour and 6 hours as compared to that in a case where the time was set to 30 minutes, preparations were performed under the respective conditions of 30 minutes, 1 hour, and 6 hours. The obtained serum sample was frozen and stored. Here, in order to investigate how the detection intensity of molecules contained in the sample was affected in cases where freezing and thawing was performed 4 times, 6 times, and 10 times after freezing as compared to that in a case where freezing and thawing was performed 2 times after freezing, freezing and thawing was performed under the respective conditions of 2, 4, 6, and 10 times.
as §2, §3, §4, §5, §6, §7, §8, §9, §10, §11
The rate of increase or decrease in Table J is the value of detection intensity relative to 1 that is the detection intensity in a case where the time from blood collection to centrifugation is set to 15 minutes.

[4] = LC/MS of serum sample: number of times of freezing and thawing (Table M); design: key to Rate of increase or decrease: detection intensity relative to 1 at 2 freeze-thaw cycles; settings: for Rate of increase or decrease: 6 times of freezing and thawing; for Number of times when compound is affected / Increase or decrease: serum sample, LC/MS; for Number of times when compound is affected: detection intensity changed by 30% or more vs 2 times of freezing and thawing; for Increase or decrease: detection intensity vs 2 times of freezing and thawing
Summary of the method: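 Serum was isolated at room temperature after centrifugation at room temperature, 3500 rpm, 5 minutes, then frozen and freeze-thawed 2, 4, 6 or 10 times. LC/MS used a Discovery HS F5-3 column at 40° C with formic acid water/acetonitrile, electrospray MRM. Intensity is relative to 2 freeze-thaw cycles.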

[5] = GC/MS of blood plasma sample: time from blood collection to cooling of blood (Table B); design: key to Rate of increase or decrease / Rate of increase or decrease (first value, increase): detection intensity relative to 1 at cooling time ≤1 min; settings: for Rate of increase or decrease: detection intensity relative to 1 at 1 minute or less, blood collection to cooling 5 minutes; for Increase or decrease: detection intensity, blood collection to cooling 5 minutes or more vs 1 minute or less
Procedure: as §1, §2
GC/MS was conducted using GCMS·TQ8040 (Shimadzu Corporation) that was a GC·MS equipped with AOC·20i (Shimadzu Corporation) as an autosampler.
Column: BPX5 (inner diameter of 0.25 mm, length of 30 m, and film thickness of 0.25 μm) (SGE)
Column temperature: maintained at 60° C. for 2 minutes, then raised at 15° C./min, and maintained at 330° C. for 3 minutes.
Inlet temperature: 250° C.
Carrier gas control mode: constant linear velocity of 39.0 cm/sec
Sample introduction method: split (split ratio of 30:1) Injection volume: 1 μL
Ionization method: electron ionization
Ionization current: 60 μA
Interface temperature: 280° C.
Ion source temperature: 200° C.
as §11
Table B presents compounds of which the detection intensity increased or decreased by 30% or more in a case where the time from blood collection to cooling of blood, when a blood plasma sample was analyzed by GC/MS, was set to 5 minutes or more as compared to that in a case where the time was set to 1 minute or less. The rate of increase or decrease in Table B is the value of detection intensity relative to 1 that is the detection intensity in a case where the time from blood collection to cooling is set to 1 minute or less.

[6] = GC/MS of serum sample: number of times of freezing and thawing (Table I); design: key to Rate of increase or decrease / Rate of increase or decrease (first value, increase): detection intensity relative to 2 freeze-thaw cycles = 1; settings: for Number of times when compound is affected: detection intensity changed by 30% or more vs 2 times of freezing and thawing
Summary of the method: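 Serum was isolated after centrifugation at room temperature (3500 rpm, 5 min), frozen, and put through 2, 4, 6 or 10 freeze–thaw cycles. Samples were methoxymated and trimethylsilylated, then run by electron-ionization GC/MS in MRM mode on a BPX5 column (60 to 330 °C). Detection intensity is given relative to the 2-cycle sample, set as 1.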

[7] = GC/MS of serum sample: time from blood collection to centrifugation (Table G); settings: blood collection to centrifugation; for Rate of increase or decrease: detection intensity relative to 1 at 15 minutes; for Increase or decrease: detection intensity
Summary of the method: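 Blood was held for varying times before centrifugation (room temperature, 3500 rpm, 5 min); serum was frozen, then methoxymated and trimethylsilylated for GC/MS with electron ionization in MRM mode. Values are detection intensities relative to the 15-minute collection-to-centrifugation condition, set as 1.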

[8] = GC/MS of serum sample: time from centrifugation to isolation (Table H); design: key to Rate of increase or decrease / Rate of increase or decrease (first value, increase): detection intensity relative to 1 at 30 min centrifugation-to-isolation; settings: for Increase or decrease: detection intensity
Summary of the method: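 Blood was centrifuged at room temperature, 3500 rpm, 5 min, and the vessel left at room temperature for 30 min, 1 h or 6 h before serum isolation. Serum was methoxymated, trimethylsilylated and analysed by GC/MS with electron ionization in MRM mode; intensities expressed relative to the 30-min condition (=1).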

[9] = freezing and thawing 10 times vs 2 times
[10] = after 12 hours from blood collection to centrifugation
[11] = detection intensity relative to 1 at 2 times
[12] = detection intensity, serum, GC/MS, freezing and thawing 4 times vs 2 times
[13] = serum sample, GC/MS, detection intensity vs 2 times of freezing and thawing

CC(C)C[C@H](N)C(=O)O [Leucine]
Rate of increase or decrease ([1]; after 12 hours): 0.69 | Increase or decrease ([1]; after 12 hours vs 15 minutes): Decrease | Rate of increase or decrease ([2]; freezing and thawing 10 times): 1.35 | Increase or decrease [2, 9]: Increase | Rate of increase or decrease [3, 10]: 1.35 | Increase or decrease [3]: Increase | Time when compound is affected [3]: After 12 hours | Rate of increase or decrease [4, 11]: 0.66 | Number of times when compound is affected [4]: 6 times | Increase or decrease [4]: Decrease

O=CC(=O)O [Glyoxylic acid]
Rate of increase or decrease [5]: 1.37 | Increase or decrease [5]: Increase | Rate of increase or decrease ([6]; detection intensity relative to 1 at 2 times, serum, GC/MS, freezing and thawing 4 times): 0.63 | Increase or decrease [6, 12]: Decrease

CC[C@H](C)[C@H](N)C(=O)O [Isoleucine]
Increase or decrease ([1]; after 12 hours vs 15 minutes): Different from individual | Rate of increase or decrease (second value, decrease) ([1]; different from individual to individual, individuals with decrease, relative to 1 at 15 minutes, collection to centrifugation, after 12 hours): 0.65 | Rate of increase or decrease (first value, increase) ([1]; different from individual to individual, individuals with increase, relative to 1 at 15 minutes, collection to centrifugation, after 12 hours): 1.31 | Rate of increase or decrease ([2]; freezing and thawing 10 times): 1.44 | Increase or decrease [2, 9]: Increase | Rate of increase or decrease [3, 10]: 1.34 | Increase or decrease [3]: Increase | Time when compound is affected [3]: After 12 hours | Rate of increase or decrease ([4]; relative to 1 at 2 times, different from individual to individual, first value (increase)): 1.33 | Rate of increase or decrease ([4]; relative to 1 at 2 times, different from individual to individual, second value (decrease)): 0.66 | Number of times when compound is affected [4]: 6 times | Increase or decrease [4]: Different from individual

O=C1CCNC(=O)N1 [Dihydrouracil]
Rate of increase or decrease [5]: 1.42 | Increase or decrease [5]: Increase | Rate of increase or decrease ([7]; after 4 hours): 3.17 | Rate of increase or decrease ([7]; after 12 hours): 1.30 | Increase or decrease ([7]; after 4 hours vs 15 minutes): Increase | Increase or decrease ([7]; after 12 hours vs 15 minutes): Decrease | Rate of increase or decrease ([8]; detection intensity relative to 1 at 30 minutes, after 1 hour): 0.30 | Increase or decrease ([8]; after 1 hour vs 30 minutes): Decrease | Increase or decrease [6, 12]: Increase; also recorded: Decrease

N=C(N)NCCC[C@H](N)C(=O)O [Arginine]
Rate of increase or decrease ([1]; after 6 hours): 0.69 | Increase or decrease ([1]; after 6 hours vs 15 minutes): Decrease | Rate of increase or decrease ([2]; freezing and thawing 4 times): 1.34 | Increase or decrease ([2]; freezing and thawing 4 times vs 2 times): Increase | Rate of increase or decrease ([6]; detection intensity relative to 1 at 2 times, serum, GC/MS, freezing and thawing 10 times): 1.51 | Increase or decrease ([6]; detection intensity, serum, GC/MS, freezing and thawing 10 times vs 2 times): Increase | Rate of increase or decrease ([3]; after 6 hours from blood collection to centrifugation): 0.54 | Increase or decrease [3]: Decrease | Time when compound is affected [3]: After 6 hours | Rate of increase or decrease [4, 11]: 0.64 | Number of times when compound is affected [4]: 6 times | Increase or decrease [4]: Decrease

O=C(O)CO [Glycolic acid]
Rate of increase or decrease [5]: 0.61 | Increase or decrease [5]: Decrease | Rate of increase or decrease ([7]; after 4 hours): 1.40 | Increase or decrease ([7]; after 4 hours vs 15 minutes): Increase | Rate of increase or decrease ([6]; 10 times of freezing and thawing, detection intensity relative to 1 at 2 times): 0.66 | Number of times when compound is affected ([6]; serum sample, GC/MS): 10 times | Increase or decrease [6, 13]: Decrease

Cn1c(=O)[nH]c2ncn(C)c2c1=O [Paraxanthine]
Increase or decrease [5]: Different from individual | Rate of increase or decrease (second value, decrease) ([5]; different from individual to individual, individuals with decrease, relative to 1 at 1 minute or less, collection to cooling 5 minutes): 0.67 | Rate of increase or decrease (first value, increase) ([5]; different from individual to individual, individuals with increase, relative to 1 at 1 minute or less, collection to cooling 5 minutes): 2.33 | Rate of increase or decrease ([7]; after 4 hours): 2.98 | Increase or decrease ([7]; after 4 hours vs 15 minutes): Increase | Increase or decrease ([8]; after 6 hours vs 30 minutes): Different from individual | Rate of increase or decrease (second value, decrease) ([8]; different from individual to individual, individuals with decrease, relative to 1 at 30 minutes, after 6 hours): 0.61 | Rate of increase or decrease (first value, increase) ([8]; different from individual to individual, individuals with increase, relative to 1 at 30 minutes, after 6 hours): 2.04 | Rate of increase or decrease ([6]; 10 times of freezing and thawing, relative to 1 at 2 times, different from individual to individual, first value (increase)): 2.65 | Rate of increase or decrease ([6]; 10 times of freezing and thawing, relative to 1 at 2 times, different from individual to individual, second value (decrease)): 0.63 | Number of times when compound is affected ([6]; serum sample, GC/MS): 10 times | Increase or decrease [6, 13]: Different from individual
